Assay results as given in ChEMBL document CHEMBL1201862, “PubChem BioAssay data set” (2004).
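Exposure lasted 48 hours, with cells grown in 96-well plates and compounds tested at five concentrations. GI50: concentration for 50% inhibition of growth.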 Active and inactive are the calls of the source. No stated cut-off is given here; in the data, active = GI50 up to about 1.1 µM and inactive = higher.

Assays:
Assay in all cases: DTP human tumour cell line panel, 48 h
[1] = test system: HCC 2998
[2] = test system: COLO 205
[3] = test system: SF-539
[4] = test system: OVCAR-8
[5] = test system: HT-29
[6] = test system: A549
[7] = test system: EKVX
[8] = test system: OVCAR-4
[9] = test system: SK-MEL-2
[10] = test system: SF-268
[11] = test system: SR
[12] = test system: U-251
[13] = test system: ACHN
[14] = test system: 786-0
[15] = test system: SN12C
[16] = test system: RPMI-8226
[17] = test system: OVCAR-3
[18] = test system: IGROV-1
[19] = test system: SK-MEL-28
[20] = test system: MDA-MB-435

`CCC(C)(O)c1cn(-c2ccc(Cl)cc2)nn1` (stereo unspecified) was tested, and the GI50 [1] was > 100 µM (inactive), the GI50 [2] was > 100 µM (inactive) and the GI50 [3] was > 100 µM (inactive). The GI50 [4] was > 100 µM (inactive), the GI50 [5] was > 100 µM (inactive) and the GI50 [6] was > 100 µM (inactive). The GI50 [7] was > 100 µM (inactive), the GI50 [8] was > 100 µM (inactive) and the GI50 [9] was > 100 µM (inactive). For the same compound, the GI50 [10] was > 100 µM (inactive), the GI50 [11] was > 100 µM (inactive) and the GI50 [12] was > 100 µM (inactive). The GI50 [13] was > 100 µM (inactive), the GI50 [14] was > 100 µM (inactive) and the GI50 [15] was > 100 µM (inactive). The GI50 [16] was > 100 µM (inactive), the GI50 [17] was > 100 µM (inactive) and the GI50 [18] was > 100 µM (inactive). The GI50 [19] was > 100 µM (inactive).

With `O=C(N/N=C(COc1cccc(Cl)c1)\N=C\c1ccncc1)c1ccncc1` the GI50 [1] was > 100 µM (inactive), the GI50 [2] was > 100 µM (inactive) and the GI50 [3] was > 100 µM (inactive). The GI50 [4] was > 100 µM (inactive), the GI50 [5] was > 100 µM (inactive) and the GI50 [6] was > 100 µM (inactive). For the same compound, the GI50 [7] was > 100 µM (inactive), the GI50 [8] was > 100 µM (inactive) and the GI50 [9] was > 100 µM (inactive). For the same compound, the GI50 [10] was > 100 µM (inactive), the GI50 [12] was > 100 µM (inactive) and the GI50 [13] was > 100 µM (inactive). The GI50 [14] was > 100 µM (inactive), the GI50 [20] was 75.3 µM (inactive) and the GI50 [15] was > 100 µM (inactive). The GI50 [16] was > 100 µM (inactive), the GI50 [17] was > 100 µM (inactive) and the GI50 [18] was > 100 µM (inactive). For the same compound, the GI50 [19] was > 100 µM (inactive).

In the case of `COc1cc2c(cc1OC)-c1cc(OC)c(OC)cc1[C@H]1CN3CCC[C@@]3(O)C=C21`, the GI50 [1] is reported as 0.01 µM (active), the GI50 [2] is reported as < 0.0001 µM (active) and the GI50 [3] is reported as < 0.0001 µM (active). For the same compound, the GI50 [4] was < 0.0001 µM (active), the GI50 [5] was < 0.0001 µM (active) and the GI50 [6] was < 0.0001 µM (active). The GI50 [7] was < 0.0001 µM (active), the GI50 [8] was < 0.0001 µM (active) and the GI50 [9] was < 0.0001 µM (active). For the same compound, the GI50 [10] was < 0.0001 µM (active), the GI50 [11] was < 0.0001 µM (active) and the GI50 [12] was < 0.0001 µM (active). The GI50 [13] was < 0.0001 µM (active), the GI50 [14] was < 0.0001 µM (active) and the GI50 [15] was < 0.0001 µM (active). The GI50 [16] was < 0.0001 µM (active), the GI50 [17] was < 0.0001 µM (active) and the GI50 [18] was < 0.0001 µM (active). For the same compound, the GI50 [19] was < 0.0001 µM (active).

`CC1CC(NN)=Nc2ccccc2N1` (stereo unspecified) was tested, and the GI50 [2] was > 100 µM (inactive), the GI50 [4] was > 100 µM (inactive) and the GI50 [5] was > 100 µM (inactive). The GI50 [6] was > 100 µM (inactive), the GI50 [7] was > 100 µM (inactive) and the GI50 [8] was > 100 µM (inactive). For the same compound, the GI50 [9] was > 100 µM (inactive), the GI50 [10] was > 100 µM (inactive) and the GI50 [12] was > 100 µM (inactive). The GI50 [13] was > 100 µM (inactive), the GI50 [14] was > 100 µM (inactive) and the GI50 [20] was > 100 µM (inactive). The GI50 [15] was > 100 µM (inactive), the GI50 [16] was 65.9 µM (inactive) and the GI50 [17] was > 100 µM (inactive). The GI50 [18] was > 100 µM (inactive) and the GI50 [19] was > 100 µM (inactive).

With `O=C(Cc1csc(-c2nc(CC(=O)NNc3ccccc3)cs2)n1)NNc1ccccc1` the GI50 [1] was 43 µM (inactive), the GI50 [2] was 25.9 µM (inactive) and the GI50 [3] was > 100 µM (inactive). The GI50 [4] was > 100 µM (inactive), the GI50 [5] was 71.1 µM (inactive) and the GI50 [6] was > 100 µM (inactive). The GI50 [7] was > 100 µM (inactive), the GI50 [8] was > 100 µM (inactive) and the GI50 [9] was > 100 µM (inactive). The GI50 [10] was > 100 µM (inactive), the GI50 [11] was 25.5 µM (inactive) and the GI50 [12] was > 100 µM (inactive). For the same compound, the GI50 [13] was > 100 µM (inactive), the GI50 [14] was 35.6 µM (inactive) and the GI50 [15] was > 100 µM (inactive). For the same compound, the GI50 [16] was > 100 µM (inactive), the GI50 [17] was > 100 µM (inactive) and the GI50 [18] was > 100 µM (inactive). The GI50 [19] was > 100 µM (inactive).

`OCc1ccc2c(c1)CC1(Cc3ccc(/C=N/O)cc3C1)C2` (stereo unspecified) was tested, and the GI50 [1] was 1.97 µM (inactive), the GI50 [2] was 3.1 µM (inactive) and the GI50 [3] was 2.72 µM (inactive). The GI50 [4] was 4.45 µM (inactive), the GI50 [5] was 1.89 µM (inactive) and the GI50 [6] was 4.93 µM (inactive). The GI50 [7] was 6.73 µM (inactive), the GI50 [8] was 1.92 µM (inactive) and the GI50 [9] was 7.26 µM (inactive). For the same compound, the GI50 [10] was 13.7 µM (inactive), the GI50 [12] was 2.86 µM (inactive) and the GI50 [13] was 7.08 µM (inactive). For the same compound, the GI50 [14] was 10.4 µM (inactive), the GI50 [20] was 0.445 µM (active) and the GI50 [15] was 2.61 µM (inactive). For the same compound, the GI50 [16] was 2.25 µM (inactive), the GI50 [17] was 2.74 µM (inactive) and the GI50 [18] was 2.84 µM (inactive). For the same compound, the GI50 [19] was 6.82 µM (inactive).

In the case of `CC1=NNC(=O)C1C1CC(c2c[nH]c3ccccc23)=NNC1=S` (stereo unspecified), the GI50 [2] is reported as 72.1 µM (inactive), the GI50 [3] is reported as > 100 µM (inactive) and the GI50 [4] is reported as > 100 µM (inactive). For the same compound, the GI50 [5] was > 100 µM (inactive), the GI50 [6] was > 100 µM (inactive) and the GI50 [7] was 28.4 µM (inactive). The GI50 [9] was > 100 µM (inactive), the GI50 [10] was > 100 µM (inactive) and the GI50 [12] was > 100 µM (inactive). For the same compound, the GI50 [13] was > 100 µM (inactive), the GI50 [14] was > 100 µM (inactive) and the GI50 [20] was 94.4 µM (inactive). For the same compound, the GI50 [15] was > 100 µM (inactive), the GI50 [16] was 36.2 µM (inactive) and the GI50 [17] was > 100 µM (inactive). For the same compound, the GI50 [19] was > 100 µM (inactive).

`CC1(C)[C@@H](Cn2cnc3c(N)ncnc32)CC[C@@]1(C)CO` was tested, and the GI50 [1] was 53 µM (inactive), the GI50 [2] was 71.9 µM (inactive) and the GI50 [4] was > 100 µM (inactive). For the same compound, the GI50 [5] was 39.4 µM (inactive), the GI50 [6] was > 100 µM (inactive) and the GI50 [7] was > 100 µM (inactive). The GI50 [8] was > 100 µM (inactive), the GI50 [10] was > 100 µM (inactive) and the GI50 [11] was 11.9 µM (inactive). The GI50 [12] was > 100 µM (inactive), the GI50 [13] was 81.5 µM (inactive) and the GI50 [14] was > 100 µM (inactive). The GI50 [20] was 45.6 µM (inactive), the GI50 [15] was > 100 µM (inactive) and the GI50 [17] was 73.6 µM (inactive). For the same compound, the GI50 [18] was 42.7 µM (inactive) and the GI50 [19] was > 100 µM (inactive).

For `COC(=O)C1C2C=CC(C2)C1(C(=O)OC)[S+]([O-])CC12CCC(CC1O)C2(C)C` (stereo unspecified), the GI50 [1] was > 100 µM (inactive), the GI50 [2] was > 100 µM (inactive) and the GI50 [3] was > 100 µM (inactive). The GI50 [4] was > 100 µM (inactive), the GI50 [5] was > 100 µM (inactive) and the GI50 [6] was > 100 µM (inactive). The GI50 [7] was > 100 µM (inactive), the GI50 [8] was > 100 µM (inactive) and the GI50 [9] was > 100 µM (inactive). For the same compound, the GI50 [10] was > 100 µM (inactive), the GI50 [11] was 31.2 µM (inactive) and the GI50 [12] was > 100 µM (inactive). For the same compound, the GI50 [13] was > 100 µM (inactive), the GI50 [14] was > 100 µM (inactive) and the GI50 [15] was > 100 µM (inactive). For the same compound, the GI50 [16] was 70.1 µM (inactive), the GI50 [17] was > 100 µM (inactive) and the GI50 [18] was > 100 µM (inactive). The GI50 [19] was > 100 µM (inactive).

`Cc1cc(C)c(C(=O)c2nnc3ccccc3c2N)c(C)c1` was tested, and the GI50 [2] was 15.2 µM (inactive), the GI50 [5] was 25.5 µM (inactive) and the GI50 [6] was 23.3 µM (inactive). For the same compound, the GI50 [9] was 14.9 µM (inactive), the GI50 [10] was 48.3 µM (inactive) and the GI50 [11] was 24 µM (inactive). For the same compound, the GI50 [12] was 28.7 µM (inactive), the GI50 [13] was 23.1 µM (inactive) and the GI50 [14] was 12.3 µM (inactive). For the same compound, the GI50 [20] was 15.8 µM (inactive), the GI50 [15] was 15.3 µM (inactive) and the GI50 [16] was 24.9 µM (inactive). For the same compound, the GI50 [17] was 16.3 µM (inactive), the GI50 [18] was 15.3 µM (inactive) and the GI50 [19] was 17 µM (inactive).

In the case of `O=S(=O)(N/C(=N\O)Nc1ccc(Cl)cc1)c1cc2ccccc2o1`, the GI50 [2] is reported as 22.6 µM (inactive), the GI50 [3] is reported as 33.9 µM (inactive) and the GI50 [4] is reported as 18.1 µM (inactive). The GI50 [5] was 22.9 µM (inactive), the GI50 [6] was 26.1 µM (inactive) and the GI50 [7] was 18.6 µM (inactive). The GI50 [8] was 17.9 µM (inactive), the GI50 [9] was 16.6 µM (inactive) and the GI50 [10] was 18.3 µM (inactive). The GI50 [12] was 17.7 µM (inactive), the GI50 [13] was 19.5 µM (inactive) and the GI50 [14] was 20.7 µM (inactive). The GI50 [20] was 12.2 µM (inactive), the GI50 [15] was 18.1 µM (inactive) and the GI50 [17] was 13.1 µM (inactive). The GI50 [18] was 12.6 µM (inactive) and the GI50 [19] was 17.9 µM (inactive).
